Where “and” joins values, the source holds several entries; their conditions need not be identical. Equal entries are not always repeated.
How the values were obtained:
[1] = test system: SARS-CoV-2 gamma VoC; parameters: species or system K18-hACE2 mice (Mus musculus); conditions: mouse, in vivo
[2] = test system: SARS-CoV-2 Gamma VoC; conditions: hamster, in vivo, 140 mg/kg
[3] = test system: TNF-α; assay: TNF-α in supernatant of SARS-CoV-2-infected human primary monocytes; assay type: cell-based; conditions: infected monocytes
Protocol: (§1) Human primary monocytes were obtained after 3 h of plastic adherence of peripheral blood mononuclear cells (PBMCs). The use of primary human cell was approved by Institutional Review Board from the Oswaldo Cruz Foundation under protocol 49971421.8.0000.5248 with signed informed consent in accordance with the Hemotherapy Service of Hospital Clementino Fraga from the Federal University of Rio de Janeiro. All volunteers were de-identified. PBMCs were isolated from healthy donors by density gradient centrifugation (Ficoll-Paque, GE Healthcare). PBMCs (2.0 × 10^6 cells) were plated onto 48-well plates (NalgeNunc) in RPMI-1640 without serum for 2–4 h. Nonadherent cells were removed, and the remaining monocytes were maintained in DMEM with 5% human serum (HS; Millipore) and penicillin/streptomycin. The purity of human monocytes was above 95%, as determined by flow cytometric analysis (FACScan; Becton Dickinson) using anti-CD3 (BD Biosciences, cat # 555342, 1:40), anti-CD16 (Southern Biotech, cat # 561313, 1:20) and APC mouse IgG2a isotype (BD Biosciences, cat # 550882, 1/40) and PE mouse IgG1 isotype (BD Biosciences, 555749, 1/20).

[4] = in vivo; conditions: both sexes, mouse, mice
Protocol: For the MTD assay (OECD 425), mice (3 animals of each sex/group) were divided into five experimental groups, and the up and down procedure was applied to which 175 mg/kg was used as the first dose. […] Mortality, morbidity, body weight, food consumption, and general and detailed clinical signs of toxicity were evaluated. At necropsy, vital (brain, heart, liver, spleen, kidneys and adrenal glands) and reproductive organs (ovaries, testicles, and epididymis) were carefully removed, weighed and stored for further analysis (if necessary).

[5] = MB-905 and metabolites in mouse lungs after single oral treatment; assay type: in vivo, mice; conditions: individual animals
Protocol: Fig. 5 Pharmacokinetic and pharmacodynamics in mice. […] Lung metabolites were detected consistently in terms of peak area and duration (c). Transgenic mice expressing the hACE2 receptor to SARS-CoV-2 entry at the age of 10–12 weeks were infected with 10^5 PFU intranasally and treated orally beginning 12–18 h after infection with 140 mg/kg/day. […] (e) are presented.
(§2) Pharmacokinetics in rodent plasma was performed in CD1 mice (Mus musculus, 20–30 g) and Sprague‒Dawley rats (Rattus norvegicus, 250–300 g) of both sexes. […] After oral or intravenous administration, blood samples were collected at times of 0.25, 0.5, 1, 2, 4, 8, and 24 and 0.083, 0.25, 0.5, 1, 2, and 4 h. Parameters such as area under the curve (AUC), time taken to reach the maximum concentration (Tmax), time taken for Cmax to drop in half (T 1/2), volume of distribution, clearance, elimination constant and bioavailability (F) were evaluated. Bioavailability was calculated using the following equation: F (%) = [(intravenous dose x oral AUC)/(oral dose × intravenous AUC)] × 100. […] Animals were treated orally with MB-905 as previously described. Animals were sacrificed at different time points after treatments, and lungs were immediately removed, placed in liquid nitrogen at −80 °C and processed for further analysis. For the analysis of plasma and lung supernatant, UPLC–MS/MS equipment was used.

[6] = test system: SARS-CoV-2; assay: Genomic and subgenomic viral RNA in infected Calu-3 cells (RT-PCR); assay type: cell-based; conditions: Calu-3, 10 µM, 48 h
[7] = MB-905 and metabolites in rat lung; assay type: in vivo, Sprague-Dawley rats (Rattus norvegicus); conditions: 30 mg/kg oral
Protocol: Noncompartmental data analysis was performed using Phoenix WinNonlin®.
as §2
Supplementary Fig. 6. Pharmacokinetic and putative metabolites of MB-905 in rats. a, […]
plasma (n = 6); b, Single oral dose (30 mg/kg bodyweight) pharmacokinetics properties of MB- […]
mg/kg, p.o.) (n=5) d, Single oral dose (30 mg/kg bodyweight) pharmacokinetics properties of […]
(30 mg/kg, p.o.) (n=3) f, Single oral dose (30 mg/kg bodyweight) pharmacokinetics properties of […]

[8] = test system: SARS-CoV-2; assay: Combination of RdRp inhibitors with SARS-CoV-2 nsp14 inhibitors in infected Calu-3 cells, synergy; assay type: cell-based; conditions: for Response (Fig3C source data for synergy analysis): DTG 0 nM
[9] = test system: Salmonella typhimurium TA 98; assay: Ames test, strain TA 98
[10] = test system: SARS-CoV-2 gamma VoC; parameters: species or system K18-hACE2 mice (Mus musculus); conditions: mouse, in vivo; remark: listed apart in the source
[11] = test system: SARS-CoV-2 RNA; assay: RNA immunoprecipitation with anti-kinetin antibody, infected Calu-3 cells; assay type: cell-based
[12] = test system: IL-6; assay: IL-6 in supernatant of SARS-CoV-2-infected human primary monocytes; assay type: cell-based; conditions: infected monocytes, drugs at 10 µM, 24 h
Protocol: as §1

[13] = infected Calu-3, compound alone at 10 uM
[14] = MB-905-treated infected Calu-3 cells

Compound: c1coc(CNc2ncnc3[nH]cnc23)c1 [MB-905, N6-furfurylaminopurine]
- LDH levels in bronchoalveolar lavage (BAL) [1]: decreased
- Tolerability (body weight) [2]: tolerated
- SARS-CoV-2-induced TNF and IL-6 levels ([3]; 10 µM): diminished
- TNF-α levels in the culture supernatant (Fig1D source data, per donor) ([3]; drugs at 10 µM, 24 h): 0.7 and 0.9 and 0.537 and 2.5 and 0.474 and 3.4
- NOAEL [4]: 500 mg/kg
- MTD ([4]; oral, read-out: Recommended dose for repeated exposure (MTD assay)): 550 mg/kg
- MB-905 level (Fig5B) ([5]; 140 mg/kg, 0.25 h): 1864 and 2462 and 2409
- MB-905 level (Fig5B) ([5]; 140 mg/kg, 1 h): 2448 and 1951
- MB-905 level (Fig5B) ([5]; 140 mg/kg, 3 h): 1209 and 771 and 2655
- MB-905 level (Fig5B) ([5]; 140 mg/kg, 8 h): 1105 and 110 and 400
- MB-905 level (Fig5B) ([5]; 140 mg/kg, 12 h): 0
- MB-905 level (Fig5B) ([5]; 500 mg/kg, 0.25 h): 5246 and 5640 and 6065
- MB-905 level (Fig5B) ([5]; 500 mg/kg, 1 h): 4146 and 4252 and 4427
- MB-905 level (Fig5B) ([5]; 500 mg/kg, 3 h): 3576 and 2579 and 2846
- MB-905 level (Fig5B) ([5]; 500 mg/kg, 8 h): 3077 and 895 and 2729
- MB-905 level (Fig5B) ([5]; 500 mg/kg, 12 h): 575 and 53 and 0
- Genomic viral RNA (Fig2B source data, replicates) [6]: 0.2 and 0.15 and 0.1
- Subgenomic viral RNA (Fig2B source data, replicates) [6]: 0.6 and 0.5 and 0.7
- MB-905 in rat lung (Fig4C source data, per animal) ([7]; 1 h): 231.05 and 263.97 and 218.08
- MB-905 in rat lung (Fig4C source data, per animal) ([7]; 2 h): 360.89 and 345.91 and 313.18
- MB-905 in rat lung (Fig4C source data, per animal) ([7]; 4 h): 100.91 and 155.47 and 69.56
- MB-905 in rat lung (Fig4C source data, per animal) ([7]; 8 h): 7.77 and 46.28 and 12.38
- MB-905 in rat lung (Fig4C source data, per animal) ([7]; 12 h): 0
- Response (Fig3C source data for synergy analysis) ([8]; MB-905 10 nM): 8
- Response (Fig3C source data for synergy analysis) ([8]; MB-905 100 nM): 17
- Response (Fig3C source data for synergy analysis) ([8]; MB-905 1000 nM): 44
- Response (Fig3C source data for synergy analysis) ([8]; MB-905 10000 nM): 89
- EC50 ([8]; Severe acute respiratory syndrome coronavirus 2, Calu-3, read-out: EC50 mean): 0.3 µM
- EC90 ([8]; Severe acute respiratory syndrome coronavirus 2, Calu-3, read-out: EC90 mean): 8 µM
- Virus productive titers (Fig3A source data, replicates) [8, 13]: 60000 and 46000 and 56000
- Virus productive titers (Fig3B source data, replicates) [8, 13]: 60000 and 46000 and 52000
- Mutagenicity TA 98 +S9 ([9]; 8 µg/mL): -
- Mutagenicity TA 98 -S9 ([9]; 8 µg/mL): -
- Mutagenicity TA 98 +S9 ([9]; 40 µg/mL): -
- Mutagenicity TA 98 -S9 ([9]; 40 µg/mL): -
- Mutagenicity TA 98 +S9 ([9]; 200 µg/mL): -
- Mutagenicity TA 98 -S9 ([9]; 200 µg/mL): -
- Mutagenicity TA 98 +S9 ([9]; 1,000 µg/mL): -
- Mutagenicity TA 98 -S9 ([9]; 1,000 µg/mL): -
- Mutagenicity TA 98 +S9 ([9]; 5,000 µg/mL): -
- Mutagenicity TA 98 -S9 ([9]; 5,000 µg/mL): -
- SARS-CoV-2-induced inflammation in the BAL fluid [10]: attenuated
- Viral RNA immunoprecipitated with anti-kinetin antibody (Ab) (Fig2C source data) [11, 14]: 149.09 and 145.01 and 123.64 and 134.36
- Viral RNA immunoprecipitated with isotype control (Iso) (Fig2C source data) [11, 14]: 2.52 and 2.29 and 2.30 and 2.50
- Enrichment of viral RNA in anti-N6-furfuryladenine IP compared to isotype control and nil-treated cells ([11]; infected Calu-3 cells): more than 10 fold
- IL-6 levels in the culture supernatant (Fig1E source data, per donor) [12]: 1.3 and 0.5 and 1.0 and 2.4 and 0.8 and 1.4 and 2.3
